Measured values reported in US20230346718A1, “METHOD OF TREATING, AMELIORATING AND/OR […]” (YALE UNIVERSITY, priority 2022, published 2023).
“Also recorded” adds a separate entry of the source.

Assays:
[1] = tested on: healthy controls (HC) and MDD participants; experiment: Cardiovascular safety: blood pressure and heart rate after intravenous DMT; assay type: in vivo, human
Method: (§1) Blood pressure was measured at baseline and 5, 10, 15, 20, 30, 45, 60, and 120 minutes after drug administration. Heart rate and pulse oximetry were measured continuously. Subjective drug effects were measured 60 min before, as well as 30 and 120 min after drug administration.

[2] = tested on: healthy controls (HC) and MDD participants; experiment: Adverse events of the dosing sessions; assay type: in vivo, human
Excerpt: Given the intensity and brevity of DMT effects, participants were allowed a mostly uninterrupted experience with psychiatrists utilizing a non-directive and supportive approach. Participants were asked how they were feeling at the same time points as the physiological recordings; no psychotherapy was provided. Rescue medications for psychological distress (lorazepam and risperidone) and hypertension (labetalol) were available. Prior to discharge, a field sobriety test and mini-mental status examination were conducted to confirm return to baseline.

[3] = tested on: healthy controls (HC) and MDD participants; experiment: Psychedelic effects, 23-item Psychedelic Effects Visual Analog Scale; assay type: in vivo, human; details: for Peak change in VAS psychedelic composite score: mean (SD)
Method: as §1
(§2) Both the VAS Psychedelic effects, and PSI were measured before dose administration, shortly after resolution of effects, and again near time of discharge. Subjects were instructed to retroactively rate the effects during the peak effects, given that they might not be able to accurately assess and report effects while immersed in the peak effects.

[4] = tested on: healthy controls (HC) and MDD participants; experiment: Psychotomimetic States Inventory (PSI); assay type: in vivo, human
Method: as §2, with “effects. […] In addition to day-after dosing follow up, subjects were contacted 1, 2, and 12 weeks after completion of the last dosing session to follow up on safety and wellbeing.” for “effects.”

[5] = tested on: healthy controls (HC) and MDD participants; experiment: In session VAS anxiety and depression; assay type: in vivo, human; details: for Peak change in VAS depression: MDD participants only; for Peak change in VAS depression / Peak change in VAS anxiety scale: mean (SD); for Peak change in VAS anxiety scale: all participants
Method: as §2, with “effects. […] In addition to day-after dosing follow up, subjects were contacted 1, 2, and 12 weeks after completion of the last dosing session to follow up on safety and wellbeing.” for “effects.”

[6] = tested on: healthy controls (HC) and MDD participants; experiment: Drug desirability / reinforcement and abuse liability measures; assay type: in vivo, human; details: for monetized value of drug effects (scale from 0-100 dollars): mean (SD)
Method: VAS measures of tolerability, willingness to pay for the experience, and likelihood to use DMT were analyzed similarly. […] HAM-D for each dose was compared to baseline using paired t-tests. […] For 23-item VAS psychedelic effects, multiple comparison correction was performed using false discovery rate (FDR) correction for all measures in order to increase statistical power and minimize […] errors (Benjamini and Hochberg, Journal of the Royal Statistical Society. Series B (Methodological) Vol. 57, No. 1 (1995), pp. 289-300). For PSI effects, Bonferroni correction was utilized.

[7] = Serum DMT levels after intravenous DMT hemifumarate; assay type: in vivo, human; details: IV 0.1 and 0.3 mg/kg; 30 and 60 min after administration
Method: FIGS. 19A-19B depict serum DMT levels in healthy control (FIG. 19A) and depression subjects (FIG. 19B) with intravenous administration of DMT hemifumarate, in accordance with some embodiments. Y-axis: serum DMT levels (ng/dl); X-axis: 60 min before DMT administration; and 30 and 60 min after DMT administration. […] Solid line (0.1 mg/kg) and dotted line (0.3 mg/kg).
Referring to FIGS. 19A-19B, the present study further reports for the first-time dose-related serum DMT levels in MDD subjects who received 0.1 and […] of IV DMT. The findings in healthy controls are mostly consistent with other studies and PK models (Callaway et al., J Ethnopharmacol. 1999 June; 65(3):243-56; Gallimore and Strassman, Front. Pharmacol., 14 Jul. 2016). […] Given the increased rigor of the assay for DMT utilized in this study, it is unlikely that the variability observed in MDD subjects is spurious. It may be important to note that while DMT's acute effects had mostly resolved by +30 min time point, it is conceivable that peripheral concentration may differ from the central site of action.

[8] = target: serotonin 5-HT2A receptors (Homo sapiens, UniProt P28223); details: literature; cited from earlier work
serotonin 5-HT2A receptors, sequence (P28223 whole entry): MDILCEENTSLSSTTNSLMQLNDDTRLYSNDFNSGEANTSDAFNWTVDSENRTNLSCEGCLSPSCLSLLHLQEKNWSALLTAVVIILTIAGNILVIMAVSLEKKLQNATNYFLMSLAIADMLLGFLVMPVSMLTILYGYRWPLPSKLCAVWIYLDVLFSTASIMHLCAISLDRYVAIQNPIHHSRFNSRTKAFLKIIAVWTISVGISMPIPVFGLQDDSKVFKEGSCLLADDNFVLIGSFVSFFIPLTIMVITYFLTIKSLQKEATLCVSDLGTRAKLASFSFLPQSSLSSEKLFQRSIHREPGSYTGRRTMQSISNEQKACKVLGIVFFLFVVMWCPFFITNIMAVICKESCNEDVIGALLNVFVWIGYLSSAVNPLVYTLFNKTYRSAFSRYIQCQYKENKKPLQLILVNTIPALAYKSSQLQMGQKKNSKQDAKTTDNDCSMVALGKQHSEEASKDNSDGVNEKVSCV

healthy volunteers = details: literature, cited from earlier work
[9] = tested on: healthy controls (HC) and MDD participants; experiment: Overall tolerability of test day, visual analog scale; details: for overall tolerability (0=intolerable to 100=well-tolerated): mean (SD)

SMILES: CN(C)CCc1c[nH]c2ccccc12 [DMT hemifumarate, N,N-dimethyltryptamine hemifumarate]
- water solubility (in words) (Water solubility): water-soluble

SMILES: CN(C)CCc1c[nH]c2ccccc12 [DMT, N,N-dimethyltryptamine]
- effect on systolic and diastolic blood pressure, and heart rate ([1]; 0.1 and 0.3 mg/kg IV, no significant dose or dose-time effects): increased
- time point with significant increases in heart rate relative to baseline ([1]; post-hoc analyses): +5 minute
- oxygen saturation during the serious adverse event ([2]; 0.3 mg/kg IV, measured continuously): 100%
- severity of adverse events (in words) ([2]; 0.1 and 0.3 mg/kg IV): mostly mild
- clinically relevant psychotic symptoms ([2]; all dosing sessions): None of the participants
- number of serious adverse events ([2]; asymptomatic bradycardia and hypotension in a MDD participant after 0.3 mg/kg): one
- symptoms in one healthy subject with anticipatory anxiety ([2]; following 0.1 mg/kg, symptoms lasted 10 minutes): lightheadedness, and pallor
- heart rate in the serious adverse event ([2]; person, 5 minutes after 0.3 mg/kg IV, dropped from 54): 42 beats per minute
- blood pressure in the serious adverse event ([2]; person, 5 minutes after 0.3 mg/kg IV, dropped from 108/60): 71/42
- Peak change in VAS psychedelic composite score ([3]; 0.1 mg/kg session): 13.16 (SD 11.91)
- Peak change in VAS psychedelic composite score ([3]; 0.3 mg/kg dose): 55.83 (SD 23.89)
- Hedge's g, VAS psychedelic composite score dose difference ([3]; 0.3 vs 0.1 mg/kg): 2.2
- Peak change in VAS psychedelic composite score, difference between doses ([3]; 95% CI 33.30 to 52.03, p<0.0001): 42.67
- number of the 23 VAS psychedelic items with significant dose-related differences ([3]; FDR correction, q=0.05): 16
- duration of acute effects / resolution after injection ([3]; IV): 20 to 30 min
- time by which acute psychedelic effects completely subsided ([3]; IV push): ≤ 30 min
- time of peak of acute psychedelic effects after dosing ([3]; IV push): 5 to 10 min
- Mean peak change in Psychotomimetic States Inventory (PSI) scale total score ([4]; 0.1 mg/kg session, mean (SD)): 7.33 (SD 7.62)
- Mean peak change in Psychotomimetic States Inventory (PSI) scale total score ([4]; 0.3 mg/kg session): 31.67 (16.57)
- Hedge's g, PSI total score dose difference ([4]; 0.3 vs 0.1 mg/kg): 1.89
- PSI total score peak change, difference between doses ([4]; 95% CI 12.74 to 35.94, p=0.001): 24.33
- Peak change in VAS anxiety, difference between doses ([5]; 95% CI −14.30 to 68.53, p=0.26): 27.11
- Peak change in VAS depression, difference between doses ([5]; 95% CI −41.47 to 57.47, p=0.92): 8.00
- Peak change in VAS depression ([5]; 0.1 mg/kg session): 6.83 (SD 28.94)
- Peak change in VAS depression ([5]; 0.3 mg/kg session): 14.83 (SD 37.79)
- Peak change in VAS anxiety scale ([5]; 0.1 mg/kg session): 2.56 (SD 31.8)
- Peak change in VAS anxiety scale ([5]; 0.3 mg/kg session): 29.67 (SD 39.96)
- monetized value of drug effects (scale from 0-100 dollars) ([6]; 0.1 mg/kg session): 25.56 (SD 29.07) dollars
- monetized value of drug effects (scale from 0-100 dollars) ([6]; 0.3 mg/kg session): 24.78 (SD 33.36) dollars
- willingness to use DMT, difference between doses ([6]; 95% CI −16.74 to 13.62, p=0.90): −1.56
- monetized value of drug effects, difference between doses ([6]; 95% CI −32.38 to 33.94, p=0.89): −0.78
- abuse potential (in words) ([6]; intravenous): low abuse potential
- serum DMT levels in MDD subjects compared with healthy controls (in words) [7]: can have higher serum DMT levels; also recorded: greater variability
- activity at serotonin 5-HT2A receptors (in words) [8]: agonist activity
- tolerability in healthy controls (in words) (healthy volunteers; doses ranging from 0.05-0.4 mg/kg): well-tolerated
- time to emergence of effects after intravenous administration (healthy volunteers; healthy volunteers): ≤ 2 min
- dose above which psychedelic effects emerge (healthy volunteers; intravenous, healthy volunteers): higher than 0.2 mg/kg
- time to full resolution of effects (healthy volunteers; intravenous): about 30 minutes
- water solubility (in words) (Water solubility): not water soluble
- overall tolerability (0=intolerable to 100=well-tolerated) ([9]; 0.1 mg/kg IV dose session): 89.80 (SD 12.95)
- overall tolerability (0=intolerable to 100=well-tolerated) ([9]; 0.3 mg/kg IV dose session): 71.11 (SD 24.52)
- overall tolerability, difference between dose sessions ([9]; 0.3 vs 0.1 mg/kg, 95% CI −32.81 to −2.75, p=0.026): −17.78
- tolerability (in words) ([9]; IV, HC and MDD participants): tolerated by both HC (n=3) and MDD participants (n=7); also recorded: well tolerated by both MDD patients and HC individuals
